Measured values: patent US20180118707A1, “BETA-NAPHTHOISOFLAVONES, COMPOSITIONS CONTAINING, AND USES OF, SAME” (Thesan Pharmaceuticals, Inc., priority 2015, published 2018)

How the values were obtained:
HepG2 cells = assay: MTT cytotoxicity assay in HepG2 cells after EROD; type: cell-based, human
Experimental: (§1) The formation of resorufin is quantified by fluorometry with a fluorescence plate reader. Fluorescence is determined at λex 570 nm and λem 590 nm. The amount of resorufin is calculated from a standard curve generated using 0 to 1 μM resorufin in water at ½ log dilutions. The remaining (i.e. all cells present at the beginning of analysis, since only supernatant is taken to assay EROD) live cells are subsequently utilized for the MIT cytotoxicity assay. MTT is made up in serum-free medium at 5 mg/ml. then added to the cells giving a final concentration of 10% (0.5 mg/ml MTT final) then incubated for 2 h. The medium is carefully removed, then MTT formazan is solubilized by adding 200 μl of DMSO and subsequently mixed on a plate shaker. The absorbance is measured spectra photometrically at 550 nm and background absorbance at 690 nm is subtracted.

[1] = target: T1, Aryl Hydrocarbon Receptor (Homo sapiens, UniProt P35869); assay: AhR activation luciferase reporter in NHK-plox-XRE TATA-Luc cells; type: cell-based; conditions: treatment for 24 h with 1-10 uM
T1 construct: endogenous in cells; host or cells: Normal human keratinocytes (NHK) transduced with the lentivector plox-XRE TATA-Luc (reporter only)
T1 sequence (P35869 11-848): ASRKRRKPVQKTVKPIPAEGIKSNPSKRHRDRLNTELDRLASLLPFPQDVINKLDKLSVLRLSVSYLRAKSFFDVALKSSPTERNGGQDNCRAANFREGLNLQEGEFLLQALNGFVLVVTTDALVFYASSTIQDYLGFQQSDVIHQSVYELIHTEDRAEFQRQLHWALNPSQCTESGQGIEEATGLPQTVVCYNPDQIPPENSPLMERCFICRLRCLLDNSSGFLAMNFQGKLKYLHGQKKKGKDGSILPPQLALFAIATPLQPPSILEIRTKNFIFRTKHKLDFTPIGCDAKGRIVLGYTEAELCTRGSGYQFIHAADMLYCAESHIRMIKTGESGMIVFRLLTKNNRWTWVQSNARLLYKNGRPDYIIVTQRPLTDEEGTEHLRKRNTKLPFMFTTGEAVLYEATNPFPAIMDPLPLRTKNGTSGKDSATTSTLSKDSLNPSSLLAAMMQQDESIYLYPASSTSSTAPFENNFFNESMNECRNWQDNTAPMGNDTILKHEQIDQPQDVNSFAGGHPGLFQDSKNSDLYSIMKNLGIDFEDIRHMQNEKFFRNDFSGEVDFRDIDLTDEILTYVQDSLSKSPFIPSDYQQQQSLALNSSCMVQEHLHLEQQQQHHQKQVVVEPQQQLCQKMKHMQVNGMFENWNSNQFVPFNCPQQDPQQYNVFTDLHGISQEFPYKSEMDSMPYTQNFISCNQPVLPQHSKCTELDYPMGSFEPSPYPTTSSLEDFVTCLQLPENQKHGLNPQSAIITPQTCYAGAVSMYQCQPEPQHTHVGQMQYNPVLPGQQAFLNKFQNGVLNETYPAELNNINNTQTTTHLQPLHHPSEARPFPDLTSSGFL
Experimental: AhR activation is also measured in human skin cells such as normal human keratinocytes (NHK cells) or A431 epidermoid cells stably transfected with the lentivector plox-XRE TATA-Luc. The NHK cells are cultured in a specific keratinocyte SFM medium (Glbco)+penicillin+streptomycin. At D0, the NHK cells are seeded Into 6-well plates in a proportion of approximately 15,000 cells/cm^2. After 24 h, the medium is replaced with fresh medium and the cells are transduced with the lentivector plox-XRE TATA-Luc. After 48 h, the cells are subcultured and maintained in culture, and tested for their reactivity to 3-phenyl-1H-benzo[f]chromen-1-one. The tests are carried out using the luciferase reporter assay system kit from Promega. At D0, the cells are seeded at a density of approximately 60% confluence, and then treated, at D1, with the test substance diluted to various concentrations in the appropriate culture medium. At D2, the cells are lysed in CLB buffer, and the lysate is clarified by centrifugation for 5 min at 10 000 g. The luciferase activity is measured in 20 microliters of lysate as recommended by the supplier, using the luminoskan luminometer (Thermo). […] Data is processed and ECso's can be calculated from standard data monitoring software.

CYP1A1 = assay: Induction of CYP1A1 enzyme in HepG2 cells, EROD assay; type: cell-based, human; conditions: human, probe 7-ethoxyresorufin (8 μM)
Experimental: as §1, with “subtracted. A standard curve generated using MIT formazan (dissolved in DMSO) from O—200 μM (0, 2, 5, 10, 20, 50, 100, 200 μM) is used to calculate the final experimental values which are then expressed as (wnol resarufin/mol MTT formazan) or as fold-Induction compared to solvent.” for “subtracted.”

CYP1A1 enzyme = assay: as above; type: cell-based, human; conditions: 10 uM, 24 h
Experimental: as §1, with “subtracted. A standard curve generated using MIT formazan (dissolved in DMSO) from O—200 μM (0, 2, 5, 10, 20, 50, 100, 200 μM) is used to calculate the final experimental values which are then expressed as (wnol resarufin/mol MTT formazan) or as fold-Induction compared to solvent.” for “subtracted.”

SMILES: O=c1cc(-c2ccccc2)oc2ccc3ccccc3c12 [D, 3-Phenyl-1H-benzo[f]chromen-1-one, reference compound]
- Toxicity threshold (HepG2 cells): >50 µM
- induction of luciferase activity [1]: significant induction
- EC50 at 24 h (CYP1A1): 1 µM
- % change vs. TCDD EROD (HepG2) at 10 uM (CYP1A1 enzyme): 19%
